According to patent publication US20090111823A1, “AMINOPYRIDINE DERIVATIVES AS MODULATORS OF MGLUR5” (AstraZeneca AB, priority 2007, published 2009):
pIC50: −log10 of the molar value.

Legend:
[1] = Determination of brain to plasma ratio in rat; type: in vivo; settings: female Sprague Dawley rats, read-out: Brain/Plasma Ratio of compound in Rat
Protocol: Brain to plasma ratios are estimated in female Sprague Dawley rats. The compound is dissolved in water or another appropriate vehicle. For determination of brain to plasma ratio the compound is administrated as a subcutaneous, or an intravenous bolus injection, or an intravenous infusion, or an oral administration. At a predetermined time point after the administration a blood sample is taken with cardiac puncture. The rat is terminated by cutting the heart open, and the brain is immediately retained. The blood samples are collected in heparinized tubes and centrifuged within 30 minutes, in order to separate the plasma from the blood cells. The plasma is transferred to 96-well plates and stored at −20° C. until analysis. The brains are divided in half, and each half is placed in a pre-tarred tube and stored at −20° C. until analysis. Prior to the analysis, the brain samples are thawed and 3 mL/g brain tissue of distilled water is added to the tubes. The brain samples are sonicated in an ice bath until the samples are homogenized. Both brain and plasma samples are precipitated with acetonitrile. After centrifugation, the supernatant is diluted with 0.2% formic acid. Analysis is performed on a short reversed-phase HPLC column with rapid gradient elution and MSMS detection using a triple quadrupole instrument with electrospray ionisation and Selected Reaction Monitoring (SRM) acquisition. Liquid-liquid extraction may be used as an alternative sample clean-tip. The samples are extracted, by shaking, to an organic solvent after addition of a suitable buffer. An aliquot of the organic layer is transferred to a new vial and evaporated to dryness under a stream of nitrogen. After reconstitution of the residuals the samples are ready for injection onto the HPLC column.

[2] = target: T1, human mGluR5d (Homo sapiens, UniProt P41594); experiment: FLIPR assay, mobilization of intracellular calcium in cells expressing human mGluR5d; type: cell-based; settings: antagonism, read-out: FLIPR hmGluR5d
T1 construct: expressed in transfected cells; The separate IP3 assay uses GHEK cells stably expressing human mGluR5d
Text: Functional Assessment of mGluR5 Antagonism in Cell Lines Expressing mGluR 5D
The properties of the compounds of the invention can be analyzed using standard assays for pharmacological activity. Examples of glutamate receptor assays are well known in the art as described in for example Aramori et al, Neuron 8:757 (1992), Tanabe et al., Neuron 8:169 (1992), Miller et al., J. Neuroscience 15: 6103 (1995), Balazs, et al., J. Neurochemistry 69:151 (1997). The methodology described in these publications is incorporated herein by reference. Conveniently, the compounds of the invention can be studied by means of an assay (FLIPR) that measures the mobilization of intracellular calcium, [Ca^2+]i in cells expressing mGluR5 or another assay (IP3) that measures inositol phosphate turnover.
Cells expressing human mGluR5d as described in WO97/05252 cultured in a mixture of high glucose DMEM with Glutamax (31966-021)(500 mL), 10% dialyzed fetal bovine serum (Hyclone #SH30079.03)(56 mL), 200 μg/mL Hygromycin B (Invitrogen 45-0430, 50 mg/mL)(2.2 mL), 200 μg/mL Zeocin (invitrogen #R250-01; 100 mg/mL)(1.1 mL) are seeded at a density of 100,000 cells per well on collagen coated clear bottom 96-well plates with black sides and cells were allowed to adhere over night before experiments. All assays are done in a buffer containing 146 mM NaCl, 5 mM KCl, 1 mM MgCl2, 1 mM CaCl2, 20 mM HEPES, 1 mg/mL glucose and 1 mg/mL BSA Fraction IV (pH 7.4). Cell cultures in the 96-well plates are loaded for 60 minutes in the above mentioned buffer containing 6 μM of the acetoxymethyl ester form of the fluorescent calcium indicator fluo-3 (Molecular Probes, Eugene, Oreg.) in 0.025% pluronic acid (a proprietary, non-ionic surfactant polyol—CAS Number 9003-11-6). […] The fluorescence signal is sampled 50 times at 1-second intervals followed by 3 samples at 5-second intervals immediately after each of the two additions. Responses are measured as the difference between the peak heights of the response to agonist, less the background fluorescence within the sample period. […]

T1 sequence (P41594 21-942 isoform P41594-3 limits assumed): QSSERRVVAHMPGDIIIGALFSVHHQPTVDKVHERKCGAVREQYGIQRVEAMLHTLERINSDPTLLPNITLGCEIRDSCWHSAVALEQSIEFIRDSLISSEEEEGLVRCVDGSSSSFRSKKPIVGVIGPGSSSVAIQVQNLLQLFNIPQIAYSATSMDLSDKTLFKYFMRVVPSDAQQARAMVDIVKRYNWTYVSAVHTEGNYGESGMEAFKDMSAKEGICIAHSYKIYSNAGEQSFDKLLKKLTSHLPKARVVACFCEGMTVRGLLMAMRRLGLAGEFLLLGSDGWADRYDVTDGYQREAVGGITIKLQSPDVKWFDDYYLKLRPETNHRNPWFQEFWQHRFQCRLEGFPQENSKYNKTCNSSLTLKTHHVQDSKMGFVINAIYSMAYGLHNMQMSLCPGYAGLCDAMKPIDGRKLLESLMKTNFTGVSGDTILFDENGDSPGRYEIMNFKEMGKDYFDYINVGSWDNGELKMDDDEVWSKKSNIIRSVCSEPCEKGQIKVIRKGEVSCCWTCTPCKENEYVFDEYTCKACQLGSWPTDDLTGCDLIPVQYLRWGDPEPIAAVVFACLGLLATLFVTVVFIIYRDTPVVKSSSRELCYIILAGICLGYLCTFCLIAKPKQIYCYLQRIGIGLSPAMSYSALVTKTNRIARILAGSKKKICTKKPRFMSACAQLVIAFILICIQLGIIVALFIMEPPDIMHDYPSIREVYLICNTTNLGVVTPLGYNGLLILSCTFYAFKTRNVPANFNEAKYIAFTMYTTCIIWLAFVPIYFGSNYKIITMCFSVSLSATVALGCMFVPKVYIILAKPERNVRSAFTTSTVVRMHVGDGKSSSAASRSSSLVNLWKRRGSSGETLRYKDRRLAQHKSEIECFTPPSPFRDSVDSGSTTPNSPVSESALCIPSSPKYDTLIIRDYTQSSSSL

Row | SMILES | Kp [1] | pIC50 [2]
1 | Cn1c(-c2ccc(N)nc2)nnc1N1CCCC1c1cc(-c2ccccc2)on1 (stereo in doubt) [Example 5.3, 5-{4-Methyl-5-[(2R)-2-(5-phenylisoxazole-3-yl)pyrrolidin-1-yl]-4H-1,2,4-triazol-3-yl}pyridin-2-amine] | < 0.01 | 7.47
2 | CN(C)c1ccc(-c2nnc(N3CCC[C@@H]3c3cc(-c4cccc(Cl)c4)on3)n2C)cn1 [Example 5.1, 5-(5-{(2R)-2-[5-(3-Chlorophenyl)isoxazol-3-yl]pyrrolidin-1-yl}-4-methyl-4H-1,2,4-triazol-3-yl)-N,N-dimethylpyridin-2-amine] | 0.285 | 7.41
3 | Cn1c(-c2ccc(N)nc2)nnc1N1CCC[C@@H]1c1cc(-c2cccc(Cl)c2)on1 [Example 5.2, 5-(5-{(2R)-2-[5-(3-Chlorophenyl)isoxazol-3-yl]pyrrolidin-1-yl}-4-methyl-4H-1,2,4-triazol-3-yl)pyridin-2-amine] | 0.085 | > 8.52
